Test results published in patent US20240358705A1, “COMPOSITIONS AND METHODS FOR TREATMENT OF CANCER” (Board of Supervisors of Louisiana State University and …, priority 2021, published 2024).

Key:
BM-MDSCs = experiment: XFe ATP rate assay, BM-MDSCs; type: cell-based, mouse; details: 10 μM, 72 hours
Protocol: Bone marrow cells were isolated by flushing the tibia and femurs of wild-type C57BL/6N mice. […] To generate BM-MDSCs, 3×10^6 cells were plated in a 6-well dish and incubated at 37° C., 5% CO2 for 96 hours. For treatment, drugs were administered at either 3 μM or 10 μM concentrations and added to the BM-MDSC cell culture well 24 hours after plating.
Treated CD8 T cell were prepared following the in vitro T cell activation method and incubated for 72 hours at 37° C., 5% CO2. Treated BM-MDSCs were prepared followed the in vitro BM-MDSCs differentiation method. The XFe ATP rate assay preparation and analysis was conducted following the manufacturer's user guide and instructions. […] Treated cells were removed from culture, pelleted and resuspended in warm assay medium at a concentration of 3×10^6 cells/ml (1.5×10^5 cells/well) for CD8 T cells and 2.6×10^6 cells/ml (1.3×10^5 cells/well) for BM-MDSCs. Cells were adhered to the culture plate by centrifugation 200×G, for one minute with zero brake per the manufacturer's instructions for immobilization of non-adherent cells (Agilent, Santa Clara, CA). […] Results were procured using the Seahorse XF real-time ATP rate assay report generator.

CD8 T cells = experiment: Annexin/PI apoptosis staining, CD8; type: cell-based, mouse; details: 3 μM or 10 μM, 72 hours, vs DMSO
Protocol: (§1) Lymph nodes and spleen were isolated from wild-type C57BL/6N mice. Tissue was mechanically dissociated with the back of a syringe plunger and passed through a 70 M filter. […] Treated cells were incubated at 37° C., 5% CO2 for the designed study duration.
Treated CD3 T cells were prepared following the in vitro T cell activation method and incubated for 72 hours at 37° C., 5% CO2.

CD3 T cells [1] = experiment: Cytokine/chemokine quantification (Milliplex); type: cell-based, mouse; details: 72 hours
Protocol: Lymph nodes and spleen were isolated from wild-type C57BL/6N mice. Tissue was mechanically dissociated with the back of a syringe plunger and passed through a […] filter. […] Treated cells were incubated at 37° C., 5% CO2 for the designed study duration. […] Culture supernatant was harvested and clarified by centrifugation at 2000 RPMI for five minutes. […] Cytokines and chemokines were quantified using a Milliplex mouse cytokine/chemokine magnetic bead panel (Millipore […]32) on a Luminex MAGPIX system with undiluted samples following the manufacturer's instructions.

CD3 T cells [2] = experiment: Granzyme B and perforin immunoblot; type: cell-based, mouse; details: for granzyme B protein production, increase compared to DMSO / granzyme B, Log2 fold change compared to DMSO / perforin production, increase compared to DMSO / perforin, Log2 fold change compared to DMSO: 72 hours
Protocol: as §1

B16-OVA = experiment: In vivo therapeutic vaccination and tumor analysis; set-up: species or system mouse; details: 30 mg/kg orally, with SIINFEKL in IFA vaccination and boosts
Protocol: C57BL/6N mice were injected with 3×10^5 B16-OVA subcutaneously in the right flank. Five days after injection, mice were administered 200 μg cyclophosphamide dissolved in PBS by intraperitoneal injection to induce minor lymphodepletion. 48 hours after lymphodepletion, mice were intravenously adoptively transferred 2.5×10^6 labeled CD8 OT-I T cells. […]. Tumor growth rates were determined by tumor volume measurement beginning on day four and continuing three times per week for the study duration. Tumor volumes were determined by the ellipsoid formula: [(Length×Width^2)/2].

[3] = tested on: adoptively transferred CD8 OT-I T cells; experiment: Immune profiling and proliferation of in vivo vaccinated CD8 T cells; set-up: species or system mouse; details: for OT-I CD8 T cell proliferation, lymph node: vehicle MC 49.37%; for effector/memory CD8 OT-I T cells, splenic compartment: vehicle MC 12.53%; for adoptively transferred cells expressing PD-1, lymph node: vehicle MC 12.58%; for effector/memory CD8 OT-I T cells, lymph node: vehicle MC 23.11%; for OT-I CD8 T cell proliferation, splenic compartment: vehicle MC 30.68%; for naïve CD8 OT-I T cells, splenic compartment: vehicle MC 46.68%; for naïve CD8 OT-I T cells, lymph node: vehicle MC […]
Protocol: Five hours later, mice were vaccinated by subcutaneous injection with […] (SEQ ID NO: 1) in IFA. 16 hours after vaccination, mice were administered 30 mg/kg or 90 mg/kg GLPG1205 suspended in 0.5% methylcellulose (Sigma #M0430100G) with 0.5% Tween-80 (Sigma #P4780100ML) (MC) orally once daily for three days. 96 hours post-vaccination, lymph node and spleen tissue were isolated for analysis. Single-cell suspensions were treated with ACK lysis to remove red blood cells, and then stained following the immune profiling by flow cytometry method. Treatment effectiveness was determined by the percent proliferation and PD-1 expression of adoptively transferred cells.

O=c1nc(OC[C@@H]2COCCO2)cc2n1CCc1cc(C#CC3CC3)ccc1-2 [GLPG1205, 9-Cyclopropylethynyl-2-((S)-1-[1,4]dioxan-2-ylmethoxy)-6,7-dihydropyrimido[6,1-a]isoquinolin-4-one]
energetic phenotype (energetic map) (BM-MDSCs): glycolytic-predominant quiescent phenotype
percent of ATP generated by glycolysis (BM-MDSCs; DMSO 39.85%): 45.55%
percent of ATP generated by OXPHOS (BM-MDSCs; DMSO 60.15%): 54.45%
ATP production rate through mitochondrial OXPHOS (BM-MDSCs; DMSO 690.95): 537.83 pmol/min
total ATP production rate (BM-MDSCs; DMSO control 1149.1): 987.48 pmol/min
ECAR and PER (BM-MDSCs; vs DMSO): did not observe any changes
OCR (BM-MDSCs; vs DMSO): overall reduction in OCR
CD8 apoptosis (Annexin/PI) (CD8 T cells): significantly reduced CD8 apoptosis
Eotaxin (CCL11) levels, increase vs DMSO (CD3 T cells [1]; 3 μM): 19.87%
G-CSF, increase vs DMSO (CD3 T cells [1]; 3 μM): 16.64%
GM-CSF, increase vs DMSO (CD3 T cells [1]; 3 μM): 32.93%
IL-1P, increase vs DMSO (CD3 T cells [1]; 3 μM): 20.06%
IL-2 production, increase vs DMSO (CD3 T cells [1]; 3 μM): 51.36%
IL-3 secretion, increase vs DMSO (CD3 T cells [1]; 3 μM): 31.91%
IL-4 secretion, increase vs DMSO (CD3 T cells [1]; 3 μM): 26.55%
IL-6, increase vs DMSO (CD3 T cells [1]; 3 μM): 30.71%
IL-9, increase vs DMSO (CD3 T cells [1]; 3 μM): did not elicit any significant changes
IL-10, increase vs DMSO (CD3 T cells [1]; 3 μM): 52.24%
IL-12(p40) levels, increase vs DMSO (CD3 T cells [1]; 3 μM): 16.99%
IL-15 secretion, increase vs DMSO (CD3 T cells [1]; 3 μM): 16.91%
IP-10 (CXCL10) secretion, increase vs DMSO (CD3 T cells [1]; 3 μM): 28.52%
KC (CXCL1) concentrations, increase vs DMSO (CD3 T cells [1]; 3 μM): 19.27%
LIF, increase vs DMSO (CD3 T cells [1]; 3 μM): 41.71%
TNFα, increase vs DMSO (CD3 T cells [1]; 3 μM): 39.64%
VEGF, increase vs DMSO (CD3 T cells [1]; 3 μM): 51.99%
Eotaxin (CCL11) levels, increase vs DMSO (CD3 T cells [1]; 10 μM): 16.57%
G-CSF, increase vs DMSO (CD3 T cells [1]; 10 μM): 26.52%
IL-2 production, increase vs DMSO (CD3 T cells [1]; 10 μM): 31.1%
IL-3 secretion, increase vs DMSO (CD3 T cells [1]; 10 μM): 38.29%
IL-4 secretion, increase vs DMSO (CD3 T cells [1]; 10 μM): did not elicit an effect
IL-6, increase vs DMSO (CD3 T cells [1]; 10 μM): 28.38%
IL-9, increase vs DMSO (CD3 T cells [1]; 10 μM): 19.94%
IL-10, increase vs DMSO (CD3 T cells [1]; 10 μM): 58.46%
IL-12(p40) levels, increase vs DMSO (CD3 T cells [1]; 10 μM): 21.77%
IL-15 secretion, increase vs DMSO (CD3 T cells [1]; 10 μM): 15.05%
IP-10 (CXCL10) secretion, increase vs DMSO (CD3 T cells [1]; 10 μM): 73.65%
KC (CXCL1) concentrations, increase vs DMSO (CD3 T cells [1]; 10 μM): 25.62%
LIF, increase vs DMSO (CD3 T cells [1]; 10 μM): 52.21%
LIX (CXCL5), increase vs DMSO (CD3 T cells [1]; 10 μM): 20.94%
MCP-1 (CCL2), increase compared to DMSO control (CD3 T cells [1]; 10 μM): 21.29%
RANTES (CCL5), increase vs DMSO (CD3 T cells [1]; 10 μM): 29.8%
TNFα, increase vs DMSO (CD3 T cells [1]; 10 μM): 50.91%
VEGF, increase vs DMSO (CD3 T cells [1]; 10 μM): 71.18%
granzyme B protein production, increase compared to DMSO (CD3 T cells [2]; 3 μM): 3.57 times
granzyme B, Log2 fold change compared to DMSO (CD3 T cells [2]; 3 μM): 1.84 Log2 fold change
perforin production, increase compared to DMSO (CD3 T cells [2]; 3 μM): 3.09 times
perforin, Log2 fold change compared to DMSO (CD3 T cells [2]; 3 μM): 1.62 Log2 fold change
granzyme B protein production, increase compared to DMSO (CD3 T cells [2]; 10 μM): 4.04 times
granzyme B, Log2 fold change compared to DMSO (CD3 T cells [2]; 10 μM): 2.01 Log2 fold change
perforin production, increase compared to DMSO (CD3 T cells [2]; 10 μM): 3.86 times
perforin, Log2 fold change compared to DMSO (CD3 T cells [2]; 10 μM): 1.95 Log2 fold change
expression of Granzyme B and Perforin (western blot) (CD3 T cells [2]; activated T cells, high doses (FIG. 5)): dramatically increases the expression of Granzyme B and perforin
anti-tumor response (tumor growth rates) compared to the MC control group (B16-OVA): significantly stronger anti-tumor response
PD-1 expression, splenic compartment, compared to MC vehicle ([3]; 30 mg/kg or 90 mg/kg): no significant increase
OT-I CD8 T cell proliferation, lymph node ([3]; 30 mg/kg orally once daily for 3 days): 73.84%
effector/memory CD8 OT-I T cells, splenic compartment ([3]; 30 mg/kg): 30.12%
adoptively transferred cells expressing PD-1, lymph node ([3]; 30 mg/kg): 16.05%
effector/memory CD8 OT-I T cells, lymph node ([3]; 30 mg/kg): 47.38%
OT-I CD8 T cell proliferation, splenic compartment ([3]; 30 mg/kg): 50.99%
naïve CD8 OT-I T cells, splenic compartment ([3]; 30 mg/kg): 26.16%
naïve CD8 OT-I T cells, lymph node ([3]; 30 mg/kg): 12.87%
OT-I CD8 T cell proliferation, lymph node ([3]; 90 mg/kg orally once daily for 3 days): 74.56%
adoptively transferred cells expressing PD-1, lymph node ([3]; 90 mg/kg, non-significant increase): 15.75%
effector/memory CD8 OT-I T cells, splenic compartment ([3]; 90 mg/kg): 37.72%
effector/memory CD8 OT-I T cells, lymph node ([3]; 90 mg/kg): 53.97%
OT-I CD8 T cell proliferation, splenic compartment ([3]; 90 mg/kg): 59.35%
naïve CD8 OT-I T cells, splenic compartment ([3]; 90 mg/kg): 16.37%
naïve CD8 OT-I T cells, lymph node ([3]; 90 mg/kg): 9.48%
